Assay results: patent US20100285540A1, “Process for the preparation of (R)-Beta-Arylalanines by coupled Racemase/Aminomutase catalysis” (Board of Trustees of Michigan State University, priority 2009, published 2010)
Where two headings read alike, the source gives them in different places. Values belong to the molecule of their own block, whether it stands above or below them.

Key:
[1] = test system: amino acid racemase and PAM; assay: Coupled enzyme reaction (racemase + PAM, DKR conditions); assay type: biochemical; settings: 0.4 mM racemic α-arylalanine, 200 μg/mL racemase, 100 μg/mL PAM, 20 h
Experimental: Coupled Enzyme Reaction. The coupled enzyme reaction mixture incubated at 31° C. contained partially purified amino acid racemase (200 μg) and PAM (100 μg) in 1 mL of 50 mM phosphate buffer (pH 8.0) containing 5% (v/v) glycerol. Each of the aryl α-amino acids (0.4 mM) were individually added to a separate assay tube containing the coupled enzyme mixture. After 20 h, the reactions were terminated by basification to pH 10-12 (with 0.5 N NaOH solution) and the amino acids were derivatized for quantification by chiral GC/EI-MS analysis as described previously.

[2] = test system: previously reported racemase; settings: naturally occurring aromatic amino acids; cited from earlier work
[3] = target: T1, phenylalanine aminomutase (PAM) (Taxus canadensis, UniProt Q6GZ04); assay: Equilibration of α- and β-arylalanines by PAM; assay type: biochemical; set-up: His6 (N); made in house; host or cells: E. coli BL21(DE3); settings: 100 μg PAM, 31° C.; for β-product to α-substrate ratio: after 20 h, 0.4 mM substrate
T1 sequence (Q6GZ04 1-698): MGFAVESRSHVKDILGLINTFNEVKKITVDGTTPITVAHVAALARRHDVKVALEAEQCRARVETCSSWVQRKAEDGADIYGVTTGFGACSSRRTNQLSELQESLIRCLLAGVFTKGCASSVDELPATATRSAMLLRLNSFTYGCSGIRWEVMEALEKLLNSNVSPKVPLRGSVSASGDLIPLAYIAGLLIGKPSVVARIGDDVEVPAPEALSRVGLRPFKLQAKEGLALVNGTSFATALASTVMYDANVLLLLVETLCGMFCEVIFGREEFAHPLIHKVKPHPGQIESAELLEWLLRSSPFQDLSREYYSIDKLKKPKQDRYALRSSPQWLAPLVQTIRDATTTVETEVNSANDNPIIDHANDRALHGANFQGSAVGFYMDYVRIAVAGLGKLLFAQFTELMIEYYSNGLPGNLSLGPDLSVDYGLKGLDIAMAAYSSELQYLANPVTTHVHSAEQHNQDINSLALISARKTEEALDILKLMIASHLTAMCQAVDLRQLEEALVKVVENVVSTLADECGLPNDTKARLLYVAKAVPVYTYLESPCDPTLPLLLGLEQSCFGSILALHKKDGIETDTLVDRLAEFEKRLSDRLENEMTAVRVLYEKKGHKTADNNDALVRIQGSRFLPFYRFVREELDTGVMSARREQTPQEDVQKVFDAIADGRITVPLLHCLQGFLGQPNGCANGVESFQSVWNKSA
Experimental: Assessing the Equilibration Rate of α- and β-Arylalanines by PAM. […] An aliquot was withdrawn from each reaction at five time points (0, 3, 6, 9 and 20 h). The ratio of (R)-β-arylalanine to (S)-α-arylalanine in each aliquot was calculated by GC/EI-MS fragmentation analysis and the abundances of the base peak fragment ions of the amino acid derivatives were compared as described earlier. The relative amount of each α-arylalanine and β-arylalanine at equilibrium was determined by linear regression analysis of the area of the base peak ion of the derivatized α- and β-arylalanines generated in the EI-MS. The peak area was converted to concentration of product (or substrate) by solving the corresponding linear equation, derived by plotting the area of the base peak ion (produced by the corresponding authentic standard in the mass spectrometer) against concentration ranging from 0 to 1.5 mM.

[4] = target: T1, phenylalanine aminomutase (PAM); assay: Effect of (R)-α-phenylalanine on PAM activity (kinetic constants)
Experimental: Evaluation of the Effect of (R)-α-Phenylalanine on PAM Activity. Phenylalanine aminomutase (100 μg/mL) was added to 50 mM phosphate buffer (pH 8.0) containing 5% (v/v) glycerol at 31° C. containing either (S)-α-phenylalanine or (R)-β-phenylalanine at a range of concentrations (0.05, 0.10, 0.20, 0.40, 0.75, 1.5, and 3 mM). The reactions were incubated at 31° C. for 90 min under steady state conditions. Identical series of assays were run in parallel for the (S)-α- or (R)-β-phenylalanine as substrates, except 0.2 mM and 0.75 mM of (R)-α-phenylalanine were added separately to each series. Double reciprocal plots of velocity (vo) and concentration were constructed for the forward and reverse PAM reaction data sets. The equation of the best-fit line (R^2=0.98) was determined (Microsoft Excel 2003, Microsoft Corporation, Redmond, Wash.) to calculate the apparent KM and Ki for the appropriate reaction.^17

[5] = target: T2, amino acid racemase from Pseudomonas putida (KT2440) (Pseudomonas putida, UniProt Q88GJ9); assay: Racemization of α-arylalanines by amino acid racemase; assay type: biochemical
T2 construct: His6 (N); made in house; host or cells: E. coli BL21(DE3)
Experimental: Assessing the Racemization Rate of α-Arylalanines by the Amino Acid Racemase. The partially purified (>90%) amino acid racemase (200 μg/mL) was added to 2.5 mL of 50 mM phosphate buffer (pH 8.0) containing 5% (v/v) glycerol and one different (S)-α-arylalanine (1.5 mM) in separate assays; the mixtures were incubated at 31° C. An aliquot was withdrawn from each reaction at five time points (0.5, 10, 30, 60, and 360 min). A similar time course experiment was conducted with (R)-α-phenylalanine.
Cofactor Dependency of the Amino Acid Racemase. To assess whether sufficient PLP, made by the E. coli BL21(DE3) expression host, remained bound to the functional PLP-dependent racemase for the duration of the assay, partially purified enzyme (400 μg) was added to each of two 2-mL assays that contained (S)-α-phenylalanine (1.5 mM). To one assay, exogenous PLP (50 μM) was added, and to the other, no cofactor was added. After 6 h, the contents of the reaction vial without PLP added were divided into two fractions […]; to one fraction was added PLP (50 μM), and the other fraction remained unchanged. Additional (S)-α-phenylalanine was added to a final concentration of 1.5 mM in all three assays, and incubated for 14 h.
Evaluation of the Effect of (R)-β-Phenylalanine on Racemase Activity. The partially purified amino acid racemase (400 μg) in 50 mM phosphate (2 mL, pH 8.0) containing 5% (v/v) glycerol buffer and (S)-α-phenylalanine (0.75 mM) was incubated in separate assays with or without (R)-β-phenylalanine (0.75 mM) added. Aliquots (0.5 mL) of each reaction mixture were withdrawn from each assay at three time points (30, 60 and 360 min). The amino acids in each fraction were derivatized and analyzed by chiral GC/EI-MS as described previously. The mol % of (S)-α-, (R)-α-arylalanine, and (R)-β-arylalanine in each sample were assessed by comparing the abundance of the diagnostic base peak fragment ion (m/z) derived by GC/EI-MS fragmentation for each of the corresponding analytes.

[6] = target: T1, phenylalanine aminomutase (PAM); set-up: His6 (N); made in house; host or cells: E. coli BL21(DE3); settings: enantiopure (S)-α-phenylalanine, 10 μg/mL enzyme, 10 μM substrate, same temperature; cited from earlier work

T2 sequence (Q88GJ9 25-409): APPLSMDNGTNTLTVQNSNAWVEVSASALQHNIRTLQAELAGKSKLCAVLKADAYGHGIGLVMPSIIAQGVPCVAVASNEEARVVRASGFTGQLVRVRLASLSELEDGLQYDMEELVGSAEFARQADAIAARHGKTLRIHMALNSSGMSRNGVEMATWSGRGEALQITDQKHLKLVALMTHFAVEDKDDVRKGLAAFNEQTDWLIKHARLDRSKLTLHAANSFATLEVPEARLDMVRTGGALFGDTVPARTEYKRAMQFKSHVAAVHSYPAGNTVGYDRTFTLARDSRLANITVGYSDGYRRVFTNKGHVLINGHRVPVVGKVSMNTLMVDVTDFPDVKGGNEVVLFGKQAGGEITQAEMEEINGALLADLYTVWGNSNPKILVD

increase in conversion to (R)-β-arylalanine under DKR conditions compared to PAM alone [1]: 12%
Molecule: NC(Cc1cccs1)C(=O)O (racemic) [2′-thienyl-α-arylalanine, (R,S)-3-(2′-thienyl)alanine]

increase in conversion to (R)-β-arylalanine under DKR conditions compared to PAM alone [1]: 14%
Molecule: NC(Cc1cccc(F)c1)C(=O)O (racemic) [3′-fluoro-α-arylalanine, 2-amino-3-(3′-fluorophenyl)propionic acid]

increase in conversion to (R)-β-arylalanine under DKR conditions compared to PAM alone [1]: 16%
Molecule: NC(Cc1ccc(F)cc1)C(=O)O (racemic) [4′-fluoro-α-arylalanine, 2-amino-3-(4′-fluorophenyl)propionic acid]

increase in conversion to (R)-β-arylalanine under DKR conditions compared to PAM alone [1]: 12%
Molecule: Cc1ccc(CC(N)C(=O)O)cc1 (racemic) [4′-methyl-α-arylalanine, (R,S)-2-amino-3-(4′-methylphenyl)propionic acid]

Molecule: N[C@@H](Cc1ccccc1)C(=O)O (racemic) [phenylalanine]
increase in conversion to (R)-β-arylalanine under DKR conditions compared to PAM alone [1]: 19%
Vrel [2]: 0.18
Keq ([3]; racemic substrate 0.4 mM, 20 h): 1.8

inhibition of the PAM reaction (forward) ([4]; 0.2 mM and 0.75 mM (R)-α-phenylalanine): did not significantly inhibit
inhibition of the reverse PAM reaction ([4]; (R)-β-phenylalanine as substrate): not inhibited
Molecule: N[C@H](Cc1ccccc1)C(=O)O [(R)-α-Phenylalanine, (R)-α-phenylalanine]

Molecule: N[C@H](CC(=O)O)c1ccccc1 [(R)-β-phenylalanine, (R)-3-amino-3-phenylpropionic acid]
substrate of the racemase [5]: nor was (R)-β-amino acid a substrate of the racemase
effect on racemase reaction rate / activity ([5]; β-arylalanine added to racemization of (S)-α-arylalanine): not affect the reaction rate

Molecule: N[C@@H](Cc1ccco1)C(=O)O [(S)-2-furanyl-α-alanine, (S)-2-amino-3-(2′-furanyl)propionic acid]
β-product to α-substrate ratio [3]: 0.41

Molecule: N[C@@H](Cc1cccs1)C(=O)O [(S)-2-thienyl-α-alanine, (S)-3-(2′-thienyl)alanine]
β-product to α-substrate ratio [3]: 0.71

Molecule: Cc1ncc(COP(=O)(O)O)c(C=O)c1O [PLP, pyridoxal-5′-phosphate, reference compound]
change in racemase reaction rate with or without supplementation ([5]; 1.5 mM α-arylalanines, exogenous PLP 50 μM): No change in the reaction rate

Molecule: N[C@@H](Cc1c[nH]cn1)C(=O)O [histidine]
Vrel [2]: 1

Molecule: N[C@@H](Cc1c[nH]c2ccccc12)C(=O)O [tryptophan]
Vrel [2]: 0.004

Molecule: (S)-α-phenylalanine
Vmax ([4]; forward reaction, with (R)-α-phenylalanine, no evident change relative to no inhibitor): 0.1 µmol/min/mg
Km ([4]; read-out: KM of PAM, in the absence of (R)-α-phenylalanine): 700 µM
Km ([4]; read-out: apparent Michaelis constant (KM apparent), forward reaction, in the presence of (R)-α-phenylalanine): 1100 µM
Keq (previous study) [6]: 1.1
